In brackets after ≈: the same amount, converted by molar mass.
Legend:
Pyruvate kinase = biological target: T1, Pyruvate kinase (Staphylococcus aureus (strain MRSA252), UniProt Q6GG09); assay: Inhibition of purified methicillin-resistant Staphylococcus aureus N-terminal His-tagged pyruvate kinase by LDH-coupled continuous assay
T1 sequence (Q6GG09 whole entry): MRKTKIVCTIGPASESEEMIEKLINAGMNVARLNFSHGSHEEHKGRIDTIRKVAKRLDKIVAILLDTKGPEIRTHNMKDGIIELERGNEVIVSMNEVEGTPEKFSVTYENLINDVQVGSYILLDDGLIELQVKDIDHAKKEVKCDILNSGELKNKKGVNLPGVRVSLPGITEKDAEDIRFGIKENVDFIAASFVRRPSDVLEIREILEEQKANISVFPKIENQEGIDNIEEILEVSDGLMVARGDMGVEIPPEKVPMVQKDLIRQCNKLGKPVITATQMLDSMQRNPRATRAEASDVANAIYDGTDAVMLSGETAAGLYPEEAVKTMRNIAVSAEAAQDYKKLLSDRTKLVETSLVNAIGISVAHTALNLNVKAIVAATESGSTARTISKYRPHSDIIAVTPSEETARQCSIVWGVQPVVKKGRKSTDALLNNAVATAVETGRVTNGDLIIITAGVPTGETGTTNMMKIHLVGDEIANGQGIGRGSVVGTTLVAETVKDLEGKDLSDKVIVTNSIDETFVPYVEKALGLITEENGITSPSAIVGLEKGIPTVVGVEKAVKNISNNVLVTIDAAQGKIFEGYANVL

[1] = biological target: T2, Pyruvate kinase (Staphylococcus aureus (strain MRSA252)) (UniProt Q6GG09); assay: Inhibition of purified methicillin-resistant Staphylococcus aureus N-terminal His-tagged pyruvate kinase at 100 uM by LDH-coupled continuous assay
T2 sequence (whole entry): T1 sequence (Q6GG09 whole entry)

Pyruvate kinase PKM [2] = biological target: T3, Pyruvate kinase PKM (Homo sapiens, UniProt P14618); assay: Inhibition of purified human N-terminal His-tagged PK-M1 at 100 uM by LDH-coupled continuous assay
Target sequence in this assay (P14618 2-531 limits assumed): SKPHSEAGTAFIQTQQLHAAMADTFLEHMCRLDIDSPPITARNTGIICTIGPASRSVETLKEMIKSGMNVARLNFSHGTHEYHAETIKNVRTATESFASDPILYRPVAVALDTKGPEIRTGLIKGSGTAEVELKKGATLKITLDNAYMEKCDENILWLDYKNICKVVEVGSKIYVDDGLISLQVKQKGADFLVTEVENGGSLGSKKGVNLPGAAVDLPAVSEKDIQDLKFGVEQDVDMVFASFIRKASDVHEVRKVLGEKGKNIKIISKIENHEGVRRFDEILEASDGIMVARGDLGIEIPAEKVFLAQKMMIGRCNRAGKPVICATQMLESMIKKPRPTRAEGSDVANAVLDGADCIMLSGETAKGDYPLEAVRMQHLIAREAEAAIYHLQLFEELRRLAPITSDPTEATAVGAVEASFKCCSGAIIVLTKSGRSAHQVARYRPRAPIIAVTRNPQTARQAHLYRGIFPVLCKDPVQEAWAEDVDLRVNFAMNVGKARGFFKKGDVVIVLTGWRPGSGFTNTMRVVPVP

Pyruvate kinase PKM [3] = biological target: T3, Pyruvate kinase PKM; assay: Inhibition of purified human N-terminal His-tagged PK-M2 at 100 uM by LDH-coupled continuous assay
Target sequence in this assay (P14618 2-531 limits assumed): as above

Pyruvate kinase PKLR [4] = biological target: T4, Pyruvate kinase PKLR (Homo sapiens, UniProt P30613); assay: Inhibition of purified human N-terminal His-tagged PK-R at 100 uM by LDH-coupled continuous assay
Target sequence in this assay (P30613 whole entry, looked up): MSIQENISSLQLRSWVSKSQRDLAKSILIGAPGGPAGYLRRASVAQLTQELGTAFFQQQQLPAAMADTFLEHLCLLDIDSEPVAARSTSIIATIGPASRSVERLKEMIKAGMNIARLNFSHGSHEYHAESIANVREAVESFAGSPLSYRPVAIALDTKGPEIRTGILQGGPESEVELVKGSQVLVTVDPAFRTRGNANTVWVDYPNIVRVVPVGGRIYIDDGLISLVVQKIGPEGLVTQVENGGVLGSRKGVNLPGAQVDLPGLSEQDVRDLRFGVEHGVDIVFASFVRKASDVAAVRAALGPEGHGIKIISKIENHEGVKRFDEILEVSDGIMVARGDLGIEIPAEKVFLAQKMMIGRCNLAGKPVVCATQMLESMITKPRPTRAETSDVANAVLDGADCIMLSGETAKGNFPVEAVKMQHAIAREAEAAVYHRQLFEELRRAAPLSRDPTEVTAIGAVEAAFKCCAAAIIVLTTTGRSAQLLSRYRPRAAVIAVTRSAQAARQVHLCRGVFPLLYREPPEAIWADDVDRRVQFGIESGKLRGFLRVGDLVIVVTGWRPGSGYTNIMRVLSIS

Pyruvate kinase PKLR [5] = biological target: T4, Pyruvate kinase PKLR; assay: Inhibition of purified human N-terminal His-tagged PK-L at 100 uM by LDH-coupled continuous assay
Target sequence in this assay (P30613 whole entry, looked up): as above

[6] = biological target: T2, Pyruvate kinase (Staphylococcus aureus (strain MRSA252)); assay: Inhibition of purified methicillin-resistant Staphylococcus aureus N-terminal His-tagged pyruvate kinase at 50 uM by LDH-coupled continuous assay
Pyruvate kinase PKM [7] = biological target: T3, Pyruvate kinase PKM; assay: Inhibition of purified human N-terminal His-tagged PK-M1 at 50 uM by LDH-coupled continuous assay
Target sequence in this assay (P14618 2-531 limits assumed): as the sequence (P14618 2-531 limits assumed) above

Pyruvate kinase PKM [8] = biological target: T3, Pyruvate kinase PKM; assay: Inhibition of purified human N-terminal His-tagged PK-M2 at 50 uM by LDH-coupled continuous assay
Target sequence in this assay (P14618 2-531 limits assumed): as above

Pyruvate kinase PKLR [9] = biological target: T4, Pyruvate kinase PKLR; assay: Inhibition of purified human N-terminal His-tagged PK-R at 50 uM by LDH-coupled continuous assay
Target sequence in this assay (P30613 whole entry, looked up): as the sequence (P30613 whole entry, looked up) above

Pyruvate kinase PKLR [10] = biological target: T4, Pyruvate kinase PKLR; assay: Inhibition of purified human N-terminal His-tagged PK-L at 50 uM by LDH-coupled continuous assay
Target sequence in this assay (P30613 whole entry, looked up): as above

[11] = biological target: T2, Pyruvate kinase (Staphylococcus aureus (strain MRSA252)); assay: Inhibition of purified methicillin-resistant Staphylococcus aureus N-terminal His-tagged pyruvate kinase at 150 uM by LDH-coupled continuous assay
Pyruvate kinase PKM [12] = biological target: T3, Pyruvate kinase PKM; assay: Inhibition of purified human N-terminal His-tagged PK-M1 at 150 uM by LDH-coupled continuous assay
Target sequence in this assay (P14618 2-531 limits assumed): as the sequence (P14618 2-531 limits assumed) above

Pyruvate kinase PKM [13] = biological target: T3, Pyruvate kinase PKM; assay: Inhibition of purified human N-terminal His-tagged PK-M2 at 150 uM by LDH-coupled continuous assay
Target sequence in this assay (P14618 2-531 limits assumed): as above

Pyruvate kinase PKLR [14] = biological target: T4, Pyruvate kinase PKLR; assay: Inhibition of purified human N-terminal His-tagged PK-R at 150 uM by LDH-coupled continuous assay
Target sequence in this assay (P30613 whole entry, looked up): as the sequence (P30613 whole entry, looked up) above

Pyruvate kinase PKLR [15] = biological target: T4, Pyruvate kinase PKLR; assay: Inhibition of purified human N-terminal His-tagged PK-L at 150 uM by LDH-coupled continuous assay
Target sequence in this assay (P30613 whole entry, looked up): as above

Pyruvate kinase PKM [16] = biological target: T3, Pyruvate kinase PKM; assay: Inhibition of purified human N-terminal His-tagged PK-M1 at 40 uM by LDH-coupled continuous assay
Pyruvate kinase PKM [17] = biological target: T3, Pyruvate kinase PKM; assay: Inhibition of purified human N-terminal His-tagged PK-M2 at 40 uM by LDH-coupled continuous assay
Pyruvate kinase PKLR [18] = biological target: T4, Pyruvate kinase PKLR; assay: Inhibition of purified human N-terminal His-tagged PK-R at 40 uM by LDH-coupled continuous assay
Pyruvate kinase PKLR [19] = biological target: T4, Pyruvate kinase PKLR; assay: Inhibition of purified human N-terminal His-tagged PK-L at 40 uM by LDH-coupled continuous assay
[20] = biological target: T2, Pyruvate kinase (Staphylococcus aureus (strain MRSA252)); settings: 40 uM
Description: Inhibition of purified methicillin-resistant Staphylococcus aureus N-terminal His-tagged pyruvate kinase at 40 uM by LDH-coupled continuous assay

Staphylococcus aureus = assay: Antimicrobial activity against Staphylococcus aureus ATCC 29213 after 24 hrs by CLSI microtiter method; format: functional; settings: ATCC 29213, 24 h
Pyruvate kinase PKM [21] = biological target: T3, Pyruvate kinase PKM; assay: Inhibition of purified human N-terminal His-tagged PK-M1 by LDH-coupled continuous assay
Target sequence in this assay (P14618 whole entry): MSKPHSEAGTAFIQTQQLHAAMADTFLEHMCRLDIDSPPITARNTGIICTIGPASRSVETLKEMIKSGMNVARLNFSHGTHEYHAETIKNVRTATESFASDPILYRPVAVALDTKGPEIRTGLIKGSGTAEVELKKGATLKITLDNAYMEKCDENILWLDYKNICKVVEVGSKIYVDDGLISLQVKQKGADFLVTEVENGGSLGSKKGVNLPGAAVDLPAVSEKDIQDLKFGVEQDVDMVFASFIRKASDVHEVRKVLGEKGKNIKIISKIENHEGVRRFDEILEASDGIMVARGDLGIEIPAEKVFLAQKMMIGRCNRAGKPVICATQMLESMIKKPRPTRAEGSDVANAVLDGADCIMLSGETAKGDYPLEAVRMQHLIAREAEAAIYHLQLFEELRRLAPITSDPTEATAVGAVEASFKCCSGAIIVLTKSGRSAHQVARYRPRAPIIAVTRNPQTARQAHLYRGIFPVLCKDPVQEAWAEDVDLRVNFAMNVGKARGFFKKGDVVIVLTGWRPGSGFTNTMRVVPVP

Pyruvate kinase PKM [22] = biological target: T3, Pyruvate kinase PKM; assay: Inhibition of purified human N-terminal His-tagged PK-M2 by LDH-coupled continuous assay
Target sequence in this assay (P14618 whole entry): as above

Pyruvate kinase PKLR [23] = biological target: T4, Pyruvate kinase PKLR; assay: Inhibition of purified human N-terminal His-tagged PK-R by LDH-coupled continuous assay
Target sequence in this assay (P30613 whole entry): as the sequence (P30613 whole entry, looked up) above

Pyruvate kinase PKLR [24] = biological target: T4, Pyruvate kinase PKLR; assay: Inhibition of purified human N-terminal His-tagged PK-L by LDH-coupled continuous assay
Target sequence in this assay (P30613 whole entry): as the sequence (P30613 whole entry, looked up) above

[25] = biological target: T2, Pyruvate kinase (Staphylococcus aureus (strain MRSA252)); assay: Inhibition of purified methicillin-resistant Staphylococcus aureus N-terminal His-tagged pyruvate kinase at 10 uM by LDH-coupled continuous assay
Pyruvate kinase PKM [26] = biological target: T3, Pyruvate kinase PKM; settings: 10 uM
Description: Inhibition of purified human N-terminal His-tagged PK-M1 at 10 uM by LDH-coupled continuous assay

Pyruvate kinase PKM [27] = biological target: T3, Pyruvate kinase PKM; settings: 10 uM; remark: listed apart in the source
Description: Inhibition of purified human N-terminal His-tagged PK-M2 at 10 uM by LDH-coupled continuous assay

Pyruvate kinase PKLR [28] = biological target: T4, Pyruvate kinase PKLR; settings: 10 uM
Description: Inhibition of purified human N-terminal His-tagged PK-R at 10 uM by LDH-coupled continuous assay

Pyruvate kinase PKLR [29] = biological target: T4, Pyruvate kinase PKLR; settings: 10 uM; remark: listed apart in the source
Description: Inhibition of purified human N-terminal His-tagged PK-L at 10 uM by LDH-coupled continuous assay

`FC(F)(F)c1ccc2[nH]cc(CCc3c[nH]c4ccccc34)c2c1` showed an IC50 (Pyruvate kinase; read-out: IC50) of 13.3 µM, an inhibition [1] of 88.4% and an inhibition (Pyruvate kinase PKM [2]) of 36.7%. The inhibition (Pyruvate kinase PKM [3]) was 95.2%, the inhibition (Pyruvate kinase PKLR [4]) was 91.4% and the inhibition (Pyruvate kinase PKLR [5]) was 85.4%.

Work on `Fc1cc(Cl)cc2c(CCc3c[nH]c4ccccc34)c[nH]c12` yielded an IC50 (Pyruvate kinase; read-out: IC50) of 4.6 µM, an inhibition [6] of 88.2% and an inhibition (Pyruvate kinase PKM [7]) of 1.1%. For the same molecule, the inhibition (Pyruvate kinase PKM [8]) was 80.9%, the inhibition (Pyruvate kinase PKLR [9]) was 85.4% and the inhibition (Pyruvate kinase PKLR [10]) was 95.7%.

In the case of `CCN(C(C)=O)c1ccc2c(CCc3c[nH]c4ccccc34)c[nH]c2c1`, the IC50 (Pyruvate kinase; read-out: IC50) is reported as 148 µM.

Molecule `Cc1ccc2[nH]cc(CCc3c[nH]c4ccccc34)c2c1` has an IC50 (Pyruvate kinase; read-out: IC50) of 32.8 µM.

Work on `Fc1ccc2[nH]cc(CCc3c[nH]c4ccccc34)c2c1` yielded an IC50 (Pyruvate kinase; read-out: IC50) of 19.8 µM, an inhibition [11] of 108% and an inhibition (Pyruvate kinase PKM [12]) of 55.1%. For the same molecule, the inhibition (Pyruvate kinase PKM [13]) was 85.5%, the inhibition (Pyruvate kinase PKLR [14]) was 99% and the inhibition (Pyruvate kinase PKLR [15]) was 101%.

`O=C(C(=O)c1c[nH]c2ccccc12)c1c[nH]c2ccccc12` showed an IC50 (Pyruvate kinase; read-out: IC50) of 50.2 µM.

Molecule `c1ccc2c(CCc3c[nH]c4ccccc34)c[nH]c2c1` has an IC50 (Pyruvate kinase; read-out: IC50) of 57.3 µM.

Molecule `Cc1ccc2c(CCc3c[nH]c4ccccc34)c[nH]c2c1` has an IC50 (Pyruvate kinase; read-out: IC50) of 294 µM.

For `COc1ccc2[nH]cc(CCc3c[nH]c4ccccc34)c2c1`, the IC50 (Pyruvate kinase; read-out: IC50) was 38.6 µM.

Molecule `N#Cc1ccc2[nH]cc(CCc3c[nH]c4ccccc34)c2c1` has an IC50 (Pyruvate kinase; read-out: IC50) of 4.2 µM, an inhibition (Pyruvate kinase PKM [16]) of -0.5% and an inhibition (Pyruvate kinase PKM [17]) of 1.1%. For the same molecule, the inhibition (Pyruvate kinase PKLR [18]) was 53.5%, the inhibition (Pyruvate kinase PKLR [19]) was 62.4% and the inhibition [20] was 82.9%.

With `O=[N+]([O-])c1cccc2[nH]cc(CCc3c[nH]c4ccccc34)c12` the IC50 (Pyruvate kinase; read-out: IC50) was 5.7 µM, the inhibition [6] was 92.8% and the inhibition (Pyruvate kinase PKM [7]) was 2.2%. It also gave an inhibition (Pyruvate kinase PKM [8]) of 50.1%, an inhibition (Pyruvate kinase PKLR [9]) of 71.8% and an inhibition (Pyruvate kinase PKLR [10]) of 75.5%.

Molecule `Clc1ccc2[nH]cc(CCc3c[nH]c4ccccc34)c2c1` has an IC50 (Pyruvate kinase; read-out: IC50) of 12.5 µM, an inhibition [1] of 114% and an inhibition (Pyruvate kinase PKM [2]) of 30.8%. The inhibition (Pyruvate kinase PKM [3]) was 98.7%, the inhibition (Pyruvate kinase PKLR [4]) was 95% and the inhibition (Pyruvate kinase PKLR [5]) was 103%.

`N#Cc1ccc2c(CCc3c[nH]c4ccccc34)c[nH]c2c1` was tested, and the IC50 (Pyruvate kinase) was “Not Active” and the MIC (Staphylococcus aureus) was 16 mg/L (≈ 56.1 µM).

In the case of `COc1ccc2c(CCc3c[nH]c4ccccc34)c[nH]c2c1`, the IC50 (Pyruvate kinase) is reported as “Not Active”.

`Clc1ccc2c(CCc3c[nH]c4ccccc34)c[nH]c2c1` was tested, and the IC50 (Pyruvate kinase; read-out: IC50) was 272 µM.

`O=[N+]([O-])c1ccc2c(CCc3c[nH]c4ccccc34)c[nH]c2c1` was tested, and the IC50 (Pyruvate kinase; read-out: IC50) was 0.9 µM, the IC50 (Pyruvate kinase PKM [21]) was 95.9 µM and the IC50 (Pyruvate kinase PKM [22]) was 54.6 µM. The IC50 (Pyruvate kinase PKLR [23]) was 18.2 µM, the IC50 (Pyruvate kinase PKLR [24]) was 21.5 µM and the inhibition [25] was 59.6%. It also gave an inhibition (Pyruvate kinase PKM [26]) of 1.1%, an inhibition (Pyruvate kinase PKM [27]) of 2.8% and an inhibition (Pyruvate kinase PKLR [28]) of 3%. The inhibition (Pyruvate kinase PKLR [29]) was 3.3%.
